Results reported in ChEMBL document CHEMBL4359901, “Cyclic enaminone as new chemotype for selective cyclooxygenase-2 inhibitory, anti-inflammatory, and analgesic activities” (Eur J Med Chem, 2019).

Columns and labels:
Rattus norvegicus [1] = test: Antiinflammatory activity in Sprague-Dawley rat model of carrageenan-induced thermal hyperalgesia assessed as paw withdrawal latency time at 30 mg/kg, po administered 1 hr prior to carrageenan challenge and measured after 2 hrs by planter test (reference value: 6.17 +/- 0.58 sec); format: functional
Rattus norvegicus [2] = test: Antiinflammatory activity in Wistar albino rat assessed as reduction in carrageenan-induced paw edema at 25 mg/kg, ip measured after 1 hr by plethysmometric method (reference value: 1.43 +/- 0.19 ml); format: functional
Rattus norvegicus [3] = test: Antiinflammatory activity in Wistar albino rat assessed as reduction in carrageenan-induced paw edema at 25 mg/kg, ip measured after 2 hrs by plethysmometric method (reference value: 1.58 +/- 0.21 ml); format: functional
Rattus norvegicus [4] = test: Antiinflammatory activity in Wistar albino rat assessed as reduction in carrageenan-induced paw edema at 25 mg/kg, ip measured after 3 hrs by plethysmometric method (reference value: 1.75 +/- 0.33 ml); format: functional
Rattus norvegicus [5] = test: Antiinflammatory activity in Wistar albino rat assessed as reduction in carrageenan-induced paw volume at 12.5 mg/kg, ip measured after 2 hrs by plethysmometric method (reference value: 1.58 +/- 0.21 ml); format: functional
Rattus norvegicus [6] = test: Antiinflammatory activity in Wistar albino rat assessed as reduction in carrageenan-induced paw volume at 12.5 mg/kg, ip measured after 3 hrs by plethysmometric method (reference value: 1.75 +/- 0.33 ml); format: functional
Rattus norvegicus [7] = test: Analgesic activity in Wistar albino rat assessed as reaction time at 25 mg/kg, ip measured after 120 mins for 15 secs by hot plate method (reference value: 4.32 +/- 0.52 sec); format: functional
Rattus norvegicus [8] = test: Analgesic activity in Wistar albino rat assessed as reaction time at 12.5 mg/kg, ip measured after 30 mins for 15 secs by hot plate method (reference value: 4.21 +/- 0.41 sec); format: functional
Rattus norvegicus [9] = test: Antiinflammatory activity in Sprague-Dawley rat model of carrageenan-induced thermal hyperalgesia assessed as paw withdrawal latency time at 50 mg/kg, po administered 1 hr prior to carrageenan challenge and measured after 1 hr by planter test (reference value: 8.88 +/- 0.52 sec); format: functional
Rattus norvegicus [10] = test: Antiinflammatory activity in Sprague-Dawley rat model of carrageenan-induced thermal hyperalgesia assessed as paw withdrawal latency pressure at 50 mg/kg, po administered 1 hr prior to carrageenan challenge and measured after 1 hr by Von-frey test (reference value: 159.88 +/- 4.66 g); format: functional
Rattus norvegicus [11] = test: Antiinflammatory activity in Sprague-Dawley rat model of carrageenan-induced thermal hyperalgesia assessed as paw withdrawal latency pressure at 30 mg/kg, po administered 1 hr prior to carrageenan challenge and measured after 2 hrs by Von-frey test (reference value: 146.47 +/- 5.12 g); format: functional
Rattus norvegicus [12] = test: Antiinflammatory activity in Sprague-Dawley rat model of carrageenan-induced thermal hyperalgesia assessed as paw withdrawal latency pressure at 30 mg/kg, po administered 1 hr prior to carrageenan challenge and measured after 3 hrs by Von-frey test (reference value: 31.65 +/- 3.33 g); format: functional
Rattus norvegicus [13] = test: Antiinflammatory activity in Sprague-Dawley rat model of carrageenan-induced thermal hyperalgesia assessed as paw withdrawal latency pressure at 30 mg/kg, po administered 1 hr prior to carrageenan challenge and measured after 4 hrs by Von-frey test (reference value: 146.61 +/- 1.58 g); format: functional
Rattus norvegicus [14] = test: Antiinflammatory activity in Sprague-Dawley rat model of carrageenan-induced thermal hyperalgesia assessed as paw withdrawal latency pressure at 50 mg/kg, po administered 1 hr prior to carrageenan challenge and measured after 2 hrs by Randall-Selitto test (reference value: 231.13 +/- 3.15 g); format: functional
Rattus norvegicus [15] = test: Antiinflammatory activity in Sprague-Dawley rat model of carrageenan-induced thermal hyperalgesia assessed as paw withdrawal latency pressure at 30 mg/kg, po administered 1 hr prior to carrageenan challenge and measured after 3 hrs by Randall-Selitto test (reference value: 176.84 +/- 8.1 g); format: functional
Rattus norvegicus [16] = test: Antiinflammatory activity in Sprague-Dawley rat model of carrageenan-induced thermal hyperalgesia assessed as paw withdrawal latency pressure at 50 mg/kg, po administered 1 hr prior to carrageenan challenge and measured after 3 hrs by Randall-Selitto test (reference value: 176.84 +/- 8.1 g); format: functional
Rattus norvegicus [17] = test: Antiinflammatory activity in Sprague-Dawley rat model of carrageenan-induced thermal hyperalgesia assessed as paw withdrawal latency pressure at 30 mg/kg, po administered 1 hr prior to carrageenan challenge and measured after 4 hrs by Randall-Selitto test (reference value: 200.08 +/- 10.22 g); format: functional
Rattus norvegicus [18] = test: Antiinflammatory activity in Sprague-Dawley rat model of carrageenan-induced thermal hyperalgesia assessed as paw withdrawal latency pressure at 50 mg/kg, po administered 1 hr prior to carrageenan challenge and measured after 3 hrs by Randall-Selitto test (reference value: […] g); format: functional
Rattus norvegicus [19] = test: Antiinflammatory activity in Sprague-Dawley rat model of carrageenan-induced thermal hyperalgesia assessed as paw withdrawal latency pressure at 30 mg/kg, po administered 1 hr prior to carrageenan challenge and measured after 5 hrs by Randall-Selitto test (reference value: 224.08 +/- 7.12 g); format: functional
Rattus norvegicus [20] = test: Antiinflammatory activity in Sprague-Dawley rat model of carrageenan-induced thermal hyperalgesia assessed as paw withdrawal latency pressure at 50 mg/kg, po administered 1 hr prior to carrageenan challenge and measured after 5 hrs by Randall-Selitto test (reference value: 224.08 +/- 7.12 g); format: functional
[21] = Antioxidant activity assessed as DPPH radical scavenging activity at 10 uM/ml incubated for 20 mins by spectrophotometric method relative to control; format: functional
[22] = Antioxidant activity assessed as DPPH radical scavenging activity at 20 uM/ml incubated for 20 mins by spectrophotometric method relative to control; format: functional
[23] = Antioxidant activity assessed as DPPH radical scavenging activity at 100 uM/ml incubated for 20 mins by spectrophotometric method relative to control; format: functional
[24] = Cardiotoxicity in Sprague-Dawley rat assessed as DBP rate at 50 mg/kg; format: toxicity, organism-based; conditions: in vivo
Rattus norvegicus [25] = test: Antiinflammatory activity in Sprague-Dawley rat model of carrageenan-induced thermal hyperalgesia assessed as paw withdrawal latency pressure at 30 mg/kg, po administered 1 hr prior to carrageenan challenge and measured after 1 hr by Randall-Selitto test (reference value: 246.55 +/- 1.05 g); format: functional
Rattus norvegicus [26] = test: Antiinflammatory activity in Sprague-Dawley rat model of carrageenan-induced thermal hyperalgesia assessed as paw withdrawal latency pressure at 50 mg/kg, po administered 1 hr prior to carrageenan challenge and measured after 1 hr by Randall-Selitto test (reference value: 246.55 +/- 1.05 g); format: functional
[27] = Ulcerogenicity in Sprague-Dawley rat assessed as formation of lesions at 30 mg/kg, po after 1 hr by microscopic analysis; format: toxicity, organism-based; conditions: in vivo
[28] = biological target: Prostaglandin G/H synthase 2 (Homo sapiens) (UniProt P35354); test: Inhibition of recombinant human COX2 assessed as reduction in PGF2alpha at 10 uM incubated for 2 mins using arachidonic acid as substrate by ELISA relative to control
Sequence of Prostaglandin G/H synthase 2 (Homo sapiens) (P35354 whole entry, looked up): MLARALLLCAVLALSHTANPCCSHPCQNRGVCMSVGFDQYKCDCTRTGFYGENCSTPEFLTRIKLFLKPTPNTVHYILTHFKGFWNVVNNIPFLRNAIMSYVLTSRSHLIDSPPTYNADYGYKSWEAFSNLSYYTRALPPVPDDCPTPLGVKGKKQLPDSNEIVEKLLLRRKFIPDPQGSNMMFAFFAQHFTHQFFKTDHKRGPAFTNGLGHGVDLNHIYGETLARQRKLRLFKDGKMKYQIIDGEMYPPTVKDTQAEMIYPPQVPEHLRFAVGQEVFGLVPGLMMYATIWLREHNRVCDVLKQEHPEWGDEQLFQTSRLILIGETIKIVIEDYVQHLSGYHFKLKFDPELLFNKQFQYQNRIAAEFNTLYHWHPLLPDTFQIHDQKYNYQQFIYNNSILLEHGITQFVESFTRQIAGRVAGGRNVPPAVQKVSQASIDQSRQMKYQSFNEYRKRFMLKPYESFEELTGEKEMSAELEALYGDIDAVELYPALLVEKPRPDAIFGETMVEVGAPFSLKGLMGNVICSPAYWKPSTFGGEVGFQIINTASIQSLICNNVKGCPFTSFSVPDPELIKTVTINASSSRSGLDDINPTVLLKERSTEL

`CC(=O)N(C1=CC(=O)CCC1)c1ccc(Cl)cc1` gave a Time (Rattus norvegicus [1]) of 8.01 s, an Activity (Rattus norvegicus [2]) of 1.25 mL and an Activity (Rattus norvegicus [3]) of 1.2 mL. The Activity (Rattus norvegicus [4]) was 1.11 mL, the Activity (Rattus norvegicus [5]) was 1.26 mL and the Activity (Rattus norvegicus [6]) was 1.18 mL. It also gave a Time (Rattus norvegicus [7]) of 11.58 s, a Time (Rattus norvegicus [8]) of 6.16 s and a Time (Rattus norvegicus [9]) of 12.25 s. For the same compound, the Activity (Rattus norvegicus [10]) was 170 g, the Activity (Rattus norvegicus [11]) was 157.83 g and the Activity (Rattus norvegicus [12]) was 152.92 g. For the same compound, the Activity (Rattus norvegicus [13]) was 159.47 g, the Activity (Rattus norvegicus [14]) was 268.96 g and the Activity (Rattus norvegicus [15]) was 249.49 g. It also gave an Activity (Rattus norvegicus [16]) of 263.26 g, an Activity (Rattus norvegicus [17]) of 258.94 g and an Activity (Rattus norvegicus [18]) of 265.61 g. For the same compound, the Activity (Rattus norvegicus [19]) was 264.48 g, the Activity (Rattus norvegicus [20]) was 266.61 g and the Activity [21] was 6.18%. For the same compound, the Activity [22] was 22.4%, the Activity [23] was 96.2% and the Activity [24] was “Non-Toxic”. The Activity (Rattus norvegicus [25]) was 261.72 g, the Activity (Rattus norvegicus [26]) was 272.83 g and the Activity [27] was “Non-Toxic”. The inhibition [28] was 96.9%.
